One assay relates to rat lung membrane SMBS. Kind of assay: Receptor-binding assessment test of compounds using rat lung membranes ([125I]-iodocyanopindolol ligand binding assay). The conditions noted are these: ratio of inhibiting specific binding of [125I]-iodocyanopindolol to rat lung membrane SMBS; test compound 1 μM. How it is done: Receptor-Binding Assessment Test of Compounds Using Rat Lung Membranes
The assessment test was carried out according to the method of Sugasawa, T. et al., J. Biol. Chem., 272, 21244-21252 (1997).
Preparation of Rat Lung Membranes
Lung taken out from SD male rat (7-week old under test, Charles River Laboratories Japan, Inc.) was removed trachea and blood vessels to shred and washed with iced tris-saline buffer (10 mM tris hydrochloric acid-154 mM sodium chloride, pH7.4). The resultant was homogenized by Hiscotron with ice-cold tris-saline buffer containing a homogenization buffer (1 mM ethylenediaminetetraacetic acid (EDTA), 1 mM 4-(2-aminoethyl)benzenesulfonyl fluoride (AEBSF), 5 μg/ml aprotinin, 5 μg/ml leupeptine) (maximum rate: 1 minute). The supernatant after low-speed centrifugation (1500×g, 20 minutes, 4° C.) was ultracentrifuged (100000×g, 20 minutes, 4° C.), and the pellet was suspended in tris-saline buffer to store at −80° C. The protein concentrations were determined by Bio-Rad Protein Assay Kit using bovine serum albumin (BSA) as a standard.
To each well in protein-nonabsorptive round-bottom 96-well assay plate (commercially available from Iwaki Glass Co., Ltd.) were added tris-saline buffer (200 μl) containing 1 nM [^125I]-iodocyanopindolol (commercially available from Amersham plc), 10 μM serotonine, 20 μm dl-propranolol, 10 μM phentolamine, 1.1 mM ascorbic acid and 100 μg lung membrane, and the mixture was pipetted to combine and then incubated at 37° C. for 30 minutes. The test compounds were dissolved in 100% dimethyl sulfoxide solution, and thereto was added 2 μl (final DMSO concentration: 1%). In order to calculate nonspecific binding amounts, to the mixture was added L-threo-3-(3,4-dihydroxyphenyl)-N-[3-(4-fluorophenyl)propyl]serine pyrrolidine amide at 100 μM of the final concentration as an alternative to the test compounds. During this time, 100 μl of 0.3% polyethyleneimine (PEI)/tris-saline buffer was added to MultiScreen plate (96-well B glass fiber, Millipore Cat. No. MAFB NOB10), and incubated for over 30 minutes. The resultant was filtered with aspiration (aspiration by the addition of 200 μl iced tris-saline buffer) to wash, and the reaction solutions on 96-well assay plate were filtered with aspiration to wash four times on MultiScreen plate. B glass fiber filter paper at the bottom of MultiScreen plate was punched out, and γ-ray doses of [^125I]-iodocyanopindolol trapped on the filter paper were determined as binding amounts. The binding amounts in the presence of DMSO (final concentration: 1%) were total binding amounts, and the binding amounts in the presence of 100 μM L-threo-3-(3,4-dihydroxyphenyl)-N-[3-(4-fluorophenyl)propyl]serine pyrrolidine amide were nonspecific binding amounts. The values subtracted the nonspecific binding amounts from the total binding amounts were the specific binding amounts. The binding activity of a compound was calculated according to the following formula, which was shown in the ratio of inhibiting the specific binding of [^125I]-iodocyanopindolol to rat lung membrane SMBS by the test compound.

Assay [1] deals with Corticosterone generation. Kind of assay: Assessment test of steroid hormone synthesis inhibition (Corticosterone generation in rat adrenal gland cells stimulated with cAMP). The format is cell-based. Conditions: inhibition rate of 10 μM test article to Corticosterone generation, 2 hours with cAMP. How it is done: Assessment Test of Steroid Hormone Synthesis Inhibition
Control examples 1 to 4: Control example 1 was Example 350 of Patent Document 2. Control examples 2 to 4 were synthesized according to Patent Document 2.
Adrenal glands were taken out from rats, and removed excess connective tissues, adiposes and membranes in D-MEM. The adrenal glands were transferred to polytubes, and quickly segmentalized with scissors. Thereto was added D-MEM containing 1 mg/mL collagenase and […] DNase I, and then the mixture was shaken at 37° C. for 10 minutes in 80 times/minute. Then, the mixture was pipetted by 1 mL truncated pipette tip, and shaken again under the same condition. After 10 minutes, the mixture was pipetted again by 1 mL pipette tip, and the cell suspension was filtered through metal mesh. The filtrate was centrifuged at 4° C. for 5 minutes in 500 g. The supernatant was removed, and thereto was added a mixed solution of 0.16 M NH4Cl and 0.17 M Tris-HCl in 3 mL. The mixture was let stand on ice for 5 minutes, and then centrifuged under the same condition. Then, the supernatant was removed and then thereto was added D-MEM. The cell suspension was prepared and centrifuged under the same condition. Again, the supernatant was removed and then thereto was added D-MEM to give a cell suspension. The cell suspension was filtered by Cell Strainer (BD Falcon®). The filtrate was centrifuged under the same condition. After the completion of the centrifugation, the supernatant was removed, and thereto was added D-MEM containing 1% Penicillin Streptomycin Mixed Solution and 10% FBS. The mixture was seeded in Multiple well plate for adhesive cell culture, 96 wells (IWAKI) in 10000 cells/well, and incubated at 37° C. overnight in CO2 incubator.
Test article concentrations were prepared in DMSO to 2000 μM, and D-MEM containing 20 μM test article in D-MEM was prepared.
Cell-seeded plate was incubated overnight, and then the medium was removed and thereto was added D-MEM containing 20 μM test article in 50 μL/well. Then, to the mixture was promptly added D-MEM containing 20 μM cAMP in 50 μL/well so that the final concentration of the test article was 10 μM. After the addition of 2 types of D-MEM, the mixture was incubated at 37° C. for 2 hours in CO2 incubator. After 2 hours, the supernatant (50 μL) of the medium was collected. For cells, the cell toxicity of the test article was assessed according to a conventional method using Cell Titer-Glo® (Promega). For the collected supernatant, the Corticosterone concentration in the supernatant was determined according to a conventional method using Corticosterone EIA kit (Cayman).
The inhibition rate of 10 μM test article to Corticosterone generation was calculated according to the following formula confirming that the cell toxicity by the test article was not recognized.

Assay [2] concerns Guinea Pig Late Asthma Model. Nature of the assay: Assessment of compounds in guinea pig late asthma model. The format is in vivo. Conditions: 3 mg/kg orally one hour before antigen challenge. How it is done:
Assessment of Compounds in Guinea Pig Late Asthma Model
The assessment was carried out using a compound obtained in Example 1.
Hartley male guinea pigs (commercially available from Japan SLC, Inc.) were pre-bred about 1 week after arrival, and then exposed by inhalation to 2% (w/v) ovalbumin (OA) saline in a plastic box (4 guinea pigs/box) for 5 minutes using a ultrasonic nebulizer (OMRON NE-U12, condition: maximum nebulizing amounts, maximum air volume), and sensitized (day 0). The same operation was carried out on day 7. On day 14 or 15, each guinea pig was administered 2% OA by inhalation for 5 minutes to initiate a response (challenge). […]
A determination and analysis of respiratory function were carried out according to the method of Penny A. Hutson et al. Am Rev Respir Dis 1988 137, 548-557. The respiratory function was determined before the antigen challenge (before drug administration) and 5 minutes and 1, 2, 3, 4, 5, 6, 7 and 8 hours after the antigen challenge, and wave profiles were imported using MacLab Chart v3.4 (AD Instruments) and analyzed later. […] The sRaw/TV values subtracting the former values were plotted against measured times, and each area under the curve (AUC4-8hr) of each animal was calculated to compare each other in the range of 4 to 8 hours after the antigen challenge. […]

As for `CNC(=O)NCCn1c(-c2ccc(N3CCOCC3)nn2)cs/c1=N\c1ccccc1F` [Example 2], in the assay with rat lung membrane SMBS, the “Binding Activity (%) (1 μM)” value was determined as 75%. Also, the inhibition at 10 µM in assay [1] was -8%.

In the case of `CCNC(=O)NCCn1c(-c2ccc(N3CCOCC3)nn2)cs/c1=N\c1ccc(F)cc1` [Example 7], the “Binding Activity (%) (1 μM)” value in the assay with rat lung membrane SMBS turned out to be 82%. Moreover, the inhibition at 10 µM in assay [1] worked out at 15%.

For `CCNC(=O)NCCn1c(-c2ccc(N3CCOCC3)nn2)cs/c1=N\c1ccc(Cl)cc1` [Example 11], the “Binding Activity (%) (1 μM)” value with rat lung membrane SMBS came out at 88%. For the same compound, the inhibition at 10 µM in assay [1] is -8%.

In the case of `CCNC(=O)NCCn1c(-c2ccc(N3CCOCC3)nn2)cs/c1=N\c1cccc(F)c1` [Example 5], in the assay on rat lung membrane SMBS, the “Binding Activity (%) (1 μM)” value came out at 83%. Also, the inhibition at 10 µM in assay [1] was -28%.

Turning to `CNC(=O)NCCn1c(-c2ccc(N3CCOCC3)nn2)cs/c1=N\c1cncc(C(F)(F)F)c1` [Example 15], the “Binding Activity (%) (1 μM)” value with rat lung membrane SMBS is on record as 89%. In assay [1], the inhibition at 10 µM amounted to 11%.

`CNC(=O)NCCn1c(-c2ccc(N3CCOCC3)nn2)cs/c1=N\c1cccc(F)c1` [Example 1, N-{2-[(2Z)-2-[(3-Fluorophenyl)imino]-3-[6-(morpholin-4-yl)pyridazinyl]-1,3-thiazol-3(2H)-yl]ethyl}-N′-methylurea]: in the assay on rat lung membrane SMBS, the “Binding Activity (%) (1 μM)” value was 103%. Moreover, the inhibition at 10 µM in assay [1] was -2%. Moreover, the “AUC4-8 hr ((sRaw/TV) · h)” value in assay [2] (OA-sensitized Hartley male guinea pigs, 4 to 8 hours after challenge) was 0.411 (sRaw/TV) · h. For the same compound, the “Improvement Rate (%)” value in assay [2] (versus control group (0.5% MC), AUC4-8hr, p<0.01 Dunnett's test) was determined as 47%.

On to `CNC(=O)NCCn1c(-c2ccc(N3CCOCC3)nn2)cs/c1=N\c1ccccc1Cl` [Example 8], for which the “Binding Activity (%) (1 μM)” value in the assay with rat lung membrane SMBS is recorded as 93%. The inhibition at 10 µM in assay [1] is -12%.

For orientation: inhibition means the change of the read-out against control, counted positive when it falls.
